Measurements: ChEMBL document CHEMBL1201862, “PubChem BioAssay data set” (2004)
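Protocol summary: plate cells (96-well), add compound at 5 concentrations, incubate 48 h, interpolate endpoints linearly. Abbreviation: GI50, concentration required for 50% inhibition of growth.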 Calls of active or inactive are those of the source. No stated cut-off is given here; in the data, active = GI50 up to about 1.1 µM and inactive = higher.

How the values were obtained:
Test in all cases: DTP human tumour cell line panel, 48 h
KM-20L2 = test system: KM-20L2
LXFL 529 = test system: LXFL 529
DMS-273 = test system: DMS-273
XF498 = test system: XF498
M19-MEL = test system: M19-MEL
DMS-114 = test system: DMS-114
HOP-18 = test system: HOP-18
SNB-78 = test system: SNB-78
RXF 631 = test system: RXF 631

SMILES | GI50 (KM-20L2) | GI50 (LXFL 529) | GI50 (DMS-273) | GI50 (XF498) | GI50 (M19-MEL) | GI50 (DMS-114) | GI50 (HOP-18) | GI50 (SNB-78) | GI50 (RXF 631)
COc1cc(OC)c2ssc3c(OC)cc(OC)c4ssc1c2-c43 | > 100 µM (inactive) | > 100 µM (inactive) | > 100 µM (inactive) | > 100 µM (inactive) | > 100 µM (inactive) | > 100 µM (inactive) | > 100 µM (inactive) | > 100 µM (inactive) | –
CS/C(=N\c1ccc([N+](=O)[O-])cc1C#N)NC(=O)c1ccccc1 | > 100 µM (inactive) | > 100 µM (inactive) | – | > 100 µM (inactive) | > 100 µM (inactive) | > 100 µM (inactive) | 75.7 µM (inactive) | > 100 µM (inactive) | > 100 µM (inactive)
O=C(Nc1ccc(Cl)cc1Cl)C1C(=O)N(c2ccc(Cl)cc2Cl)C(=O)/C1=N\Nc1ccc([N+](=O)[O-])cc1[N+](=O)[O-] (centres undefined) | 26.4 µM (inactive) | 13.9 µM (inactive) | 46.6 µM (inactive) | – | 59.3 µM (inactive) | 13.2 µM (inactive) | 17.9 µM (inactive) | > 100 µM (inactive) | 62.2 µM (inactive)
O=C(Nc1ccc(Cl)cc1Cl)C1C(=O)C(=O)N(c2ccc(Cl)cc2Cl)C1=O (centres undefined) | > 100 µM (inactive) | > 100 µM (inactive) | – | – | > 100 µM (inactive) | > 100 µM (inactive) | > 100 µM (inactive) | > 100 µM (inactive) | –
CCOC(=O)C1=C(C)C2C3C(=O)OC(=O)C3C1(C)C1C(=O)OC(=O)C21 (centres undefined) | > 100 µM (inactive) | > 100 µM (inactive) | > 100 µM (inactive) | – | > 100 µM (inactive) | > 100 µM (inactive) | – | > 100 µM (inactive) | > 100 µM (inactive)
N#CCCN(CCC#N)C(=O)c1cccc(C(=O)N(CCC#N)CCC#N)c1 | > 42.8 µM (inactive) | 14.1 µM (inactive) | > 100 µM (inactive) | > 100 µM (inactive) | > 100 µM (inactive) | > 100 µM (inactive) | – | > 100 µM (inactive) | –
O=C1NC(=O)C2C(=O)NC(=O)C1C2Cc1ccco1 (centres undefined) | > 100 µM (inactive) | – | > 100 µM (inactive) | > 100 µM (inactive) | > 100 µM (inactive) | > 100 µM (inactive) | – | > 100 µM (inactive) | –
Clc1cccc(C2N3CCCCC3[C@@H]3c4[nH]c5ccccc5c4CCN23)c1 (some centres undefined) | 56.8 µM (inactive) | – | 30.1 µM (inactive) | 20.9 µM (inactive) | 20.1 µM (inactive) | 20.6 µM (inactive) | > 100 µM (inactive) | – | –
Fc1ccc(F)c(C2SCc3nc4ccccc4n32)c1 (centres undefined) | > 100 µM (inactive) | 53.3 µM (inactive) | 20.5 µM (inactive) | – | 48.2 µM (inactive) | 23.5 µM (inactive) | 89.1 µM (inactive) | 52.5 µM (inactive) | –
CCOC(=O)/C=C1\Nc2ccccc2-n2nnnc21 | > 100 µM (inactive) | > 100 µM (inactive) | 30.3 µM (inactive) | – | > 100 µM (inactive) | > 100 µM (inactive) | > 100 µM (inactive) | > 100 µM (inactive) | –
CSc1ccc(/C=C2\CN(C)C/C(=C\c3ccc(SC)cc3)C2=O)cc1 | 32.1 µM (inactive) | 5.22 µM (inactive) | 14.1 µM (inactive) | 18.9 µM (inactive) | 35.1 µM (inactive) | 24.9 µM (inactive) | > 100 µM (inactive) | 19.8 µM (inactive) | –
O=C(/C=N/O)Nc1ccc(Cl)c(I)c1 | 33 µM (inactive) | 12.9 µM (inactive) | 18.4 µM (inactive) | 21.6 µM (inactive) | 22.4 µM (inactive) | 16.6 µM (inactive) | – | – | –
COC(=O)C1=CC(O)CCC1c1ccc(OC)cc1 (centres undefined) | > 100 µM (inactive) | > 100 µM (inactive) | > 100 µM (inactive) | – | > 100 µM (inactive) | > 100 µM (inactive) | > 100 µM (inactive) | > 100 µM (inactive) | –
Cc1cc(C)nc(NS(=O)(=O)c2ccc(NC(=O)c3cccc4c(Nc5ccc(S(=O)(=O)Nc6nc(C)cc(C)n6)cc5)c5ccccc5nc34)cc2)n1 | 20.1 µM (inactive) | 21.3 µM (inactive) | 17.9 µM (inactive) | 33.6 µM (inactive) | 29.5 µM (inactive) | – | 12.2 µM (inactive) | 39.6 µM (inactive) | 18.1 µM (inactive)
C1=C(c2ccccc2)C(OC2Oc3ccccc3C=C2c2ccccc2)Oc2ccccc21 (centres undefined) | > 100 µM (inactive) | > 100 µM (inactive) | > 100 µM (inactive) | > 100 µM (inactive) | > 100 µM (inactive) | > 100 µM (inactive) | > 100 µM (inactive) | > 100 µM (inactive) | > 100 µM (inactive)
Cc1ccc(NC(=O)CCc2nnc(S)[nH]2)cc1 | 54.8 µM (inactive) | > 100 µM (inactive) | > 100 µM (inactive) | > 100 µM (inactive) | > 100 µM (inactive) | 39.5 µM (inactive) | > 100 µM (inactive) | > 100 µM (inactive) | > 100 µM (inactive)
Nc1cn(C2OC(CC(c3ccccc3)(c3ccccc3)c3ccccc3)C(O)C2O)c(=O)[nH]c1=O (centres undefined) | 22 µM (inactive) | 31.8 µM (inactive) | 33.3 µM (inactive) | 28.6 µM (inactive) | 18.4 µM (inactive) | 15.5 µM (inactive) | 31.9 µM (inactive) | 67.9 µM (inactive) | 43.9 µM (inactive)
CC(=O)C1=C(O)C(N)C2Cc3c(c(O)c4c(O)c(C)ccc4c3C)C(=O)C2(O)C1=O (centres undefined) | 2.85 µM (inactive) | 2.66 µM (inactive) | 1.73 µM (inactive) | 1.84 µM (inactive) | 2.48 µM (inactive) | 2.38 µM (inactive) | 2.93 µM (inactive) | 2.17 µM (inactive) | 2.2 µM (inactive)
CN(C)CC(C)(C)C(/C=C/c1ccccc1)=N\Nc1ccccc1 | 0.0217 µM (active) | 0.197 µM (active) | 0.335 µM (active) | – | 10 µM (inactive) | 4.25 µM (inactive) | 15.3 µM (inactive) | 11 µM (inactive) | –
Cc1cc(O)c(C=O)c(C)c1CCC1(C)C=Cc2cc(O)ccc2O1 (centres undefined) | 25.1 µM (inactive) | 15.7 µM (inactive) | 21.5 µM (inactive) | 19.1 µM (inactive) | 27.7 µM (inactive) | 18.4 µM (inactive) | 18.3 µM (inactive) | 21.2 µM (inactive) | –
N#C/C(=C1\SC(/N=N/c2ccccc2)C(=O)N1c1ccccc1)c1nc2ccccc2[nH]1 (centres undefined) | > 100 µM (inactive) | > 100 µM (inactive) | 45.7 µM (inactive) | 17.7 µM (inactive) | > 100 µM (inactive) | > 100 µM (inactive) | – | > 100 µM (inactive) | –
Fc1ccc(/N=C2C=C/C(=N\c3ccc(F)cc3)c3ccccc3\2)cc1 | > 100 µM (inactive) | > 100 µM (inactive) | > 100 µM (inactive) | > 100 µM (inactive) | > 100 µM (inactive) | – | > 100 µM (inactive) | > 100 µM (inactive) | –
O=C(CC1(O)C(=O)Nc2ccc([N+](=O)[O-])cc21)c1ccc2ccccc2c1 (centres undefined) | > 100 µM (inactive) | > 100 µM (inactive) | > 100 µM (inactive) | – | > 100 µM (inactive) | > 100 µM (inactive) | – | > 100 µM (inactive) | > 100 µM (inactive)
O=S(=O)(O)c1ccc([Se][Se]c2ccc(S(=O)(=O)O)cc2)cc1 | > 100 µM (inactive) | 51.2 µM (inactive) | 76.7 µM (inactive) | > 100 µM (inactive) | > 100 µM (inactive) | > 100 µM (inactive) | > 100 µM (inactive) | > 100 µM (inactive) | –
CC1OC(=O)N2CCC=CC12 (centres undefined) | > 100 µM (inactive) | > 100 µM (inactive) | > 100 µM (inactive) | > 100 µM (inactive) | > 100 µM (inactive) | > 100 µM (inactive) | > 100 µM (inactive) | > 100 µM (inactive) | > 100 µM (inactive)
COC(=O)C1C2C=CC(C2)N1[C@@H](C)c1ccccc1 (some centres undefined) | > 100 µM (inactive) | > 100 µM (inactive) | > 100 µM (inactive) | – | > 100 µM (inactive) | – | > 100 µM (inactive) | > 100 µM (inactive) | –
COc1cc(/C=C2/C(=O)N(C(=O)c3ccccc3O)N=C2C)ccc1O | 18.5 µM (inactive) | 0.0515 µM (active) | – | 0.0723 µM (active) | 0.653 µM (active) | 0.171 µM (active) | – | – | –
CC(C)C1CC(O)O[C@@H]([C@@H](C)[C@H]2CC(=O)[C@@H]3[C@@H]4[C@@H](O)[C@H](O)[C@H]5[C@@H](O)[C@H](O)CC[C@]5(C)[C@H]4CC[C@]23C)C1 (some centres undefined) | > 100 µM (inactive) | > 100 µM (inactive) | 39.8 µM (inactive) | 18.9 µM (inactive) | 37.1 µM (inactive) | – | – | 38.9 µM (inactive) | –
O=[N+]([O-])c1nccn1CC(O)CN1CC1 (centres undefined) | 61.2 µM (inactive) | 79.4 µM (inactive) | 27.4 µM (inactive) | > 100 µM (inactive) | 63.4 µM (inactive) | 50.7 µM (inactive) | > 100 µM (inactive) | 78 µM (inactive) | 40 µM (inactive)
